ChEMBL document CHEMBL1201862, “PubChem BioAssay data set” (2004)
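Interpolation was linear, between the two tested concentrations surrounding the appropriate level; five concentrations were tested over 48 hours in 96-well plates. GI50 = concentration required for 50% inhibition of growth.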 Calls of active or inactive are those of the source. Cut-off read from the data, not from the text of the source: active = GI50 up to about 1.1 µM and inactive = higher.

What was measured:
Assay in all cases: inhibition of tumour cell growth, NCI panel, 48 h
SF-539 = test system: SF-539
SNB-19 = test system: SNB-19
NCI-H522 = test system: NCI-H522
SN12C = test system: SN12C
HOP-62 = test system: HOP-62
HT-29 = test system: HT-29
HCT-116 = test system: HCT-116
NCI/ADR-RES = test system: NCI/ADR-RES
OVCAR-5 = test system: OVCAR-5
SF-295 = test system: SF-295
SK-MEL-5 = test system: SK-MEL-5
MDA-N = test system: MDA-N
A549 = test system: A549
OVCAR-4 = test system: OVCAR-4
OVCAR-8 = test system: OVCAR-8
RPMI-8226 = test system: RPMI-8226
U-251 = test system: U-251
CAKI-1 = test system: CAKI-1
COLO 205 = test system: COLO 205
HCC 2998 = test system: HCC 2998

Row | Structure (SMILES) | GI50 (SF-539) | GI50 (SNB-19) | GI50 (NCI-H522) | GI50 (SN12C) | GI50 (HOP-62) | GI50 (HT-29) | GI50 (HCT-116) | GI50 (NCI/ADR-RES) | GI50 (OVCAR-5) | GI50 (SF-295) | GI50 (SK-MEL-5) | GI50 (MDA-N) | GI50 (A549) | GI50 (OVCAR-4) | GI50 (OVCAR-8) | GI50 (RPMI-8226) | GI50 (U-251) | GI50 (CAKI-1) | GI50 (COLO 205) | GI50 (HCC 2998)
1 | CCOc1cc(-c2nc3ccccn3c2/N=C/c2cc([N+](=O)[O-])cc([N+](=O)[O-])c2O)ccc1O | > 100 µM (inactive) | > 100 µM (inactive) | > 100 µM (inactive) | > 100 µM (inactive) | > 100 µM (inactive) | > 100 µM (inactive) | > 100 µM (inactive) | > 100 µM (inactive) | > 100 µM (inactive) | > 100 µM (inactive) | > 100 µM (inactive) | > 100 µM (inactive) | > 100 µM (inactive) | > 100 µM (inactive) | > 100 µM (inactive) | > 100 µM (inactive) | > 100 µM (inactive) | > 100 µM (inactive) | > 100 µM (inactive) | 
2 | CSc1ncnc2c1ncn2CCC#N | > 100 µM (inactive) | > 100 µM (inactive) | > 100 µM (inactive) | > 100 µM (inactive) | > 100 µM (inactive) | > 100 µM (inactive) | > 100 µM (inactive) | > 100 µM (inactive) | > 100 µM (inactive) | > 100 µM (inactive) | > 100 µM (inactive) | > 100 µM (inactive) | > 100 µM (inactive) | > 100 µM (inactive) | > 100 µM (inactive) | > 100 µM (inactive) |  | > 100 µM (inactive) | > 100 µM (inactive) | 
3 | N#CCCC(CCC#N)(CCC#N)NO | > 100 µM (inactive) | > 100 µM (inactive) | 0.013 µM (active) | > 100 µM (inactive) |  | > 100 µM (inactive) | > 100 µM (inactive) | > 100 µM (inactive) | > 100 µM (inactive) | > 100 µM (inactive) | > 100 µM (inactive) | > 100 µM (inactive) | > 100 µM (inactive) |  | > 100 µM (inactive) | > 100 µM (inactive) | > 100 µM (inactive) | > 100 µM (inactive) | > 100 µM (inactive) | 
4 | CCOC(=O)c1cc(-c2ccc([N+](=O)[O-])cc2)c([N+](=O)[O-])[nH]1 | > 10 µM (inactive) | 2.91 µM (inactive) | 3.33 µM (inactive) | > 10 µM (inactive) |  | 2.69 µM (inactive) | 4.85 µM (inactive) | 3.1 µM (inactive) | 5.47 µM (inactive) | 2.1 µM (inactive) |  |  | 2.88 µM (inactive) | 4.23 µM (inactive) | 4.24 µM (inactive) |  | 3.46 µM (inactive) |  |  | 4.38 µM (inactive)
5 | COC(=O)C1(O)C(c2ccccc2)NC2(C)CCCC21 (centres undefined) | > 100 µM (inactive) | > 100 µM (inactive) | > 100 µM (inactive) | > 100 µM (inactive) | > 100 µM (inactive) |  | > 100 µM (inactive) | > 100 µM (inactive) |  | > 100 µM (inactive) | > 100 µM (inactive) | > 100 µM (inactive) | > 100 µM (inactive) | > 100 µM (inactive) | > 100 µM (inactive) |  | > 100 µM (inactive) | > 100 µM (inactive) | > 100 µM (inactive) | 
6 | Cn1c(COC(=O)NC2CCCCC2)c(COC(=O)NC2CCCCC2)c2ccc3ccccc3c21 | 16 µM (inactive) | 55.7 µM (inactive) | 16.2 µM (inactive) |  | 35 µM (inactive) | 53.6 µM (inactive) | 33 µM (inactive) | 23.1 µM (inactive) | 43.5 µM (inactive) | 41 µM (inactive) | 31.7 µM (inactive) | > 100 µM (inactive) | 83.8 µM (inactive) | 53.3 µM (inactive) | 40.2 µM (inactive) | 49.2 µM (inactive) | > 100 µM (inactive) | 11 µM (inactive) | 33.2 µM (inactive) | 
7 | Cc1cccc2nc3cc(O)cc(O)c3c(O)c12 | > 10 µM (inactive) | > 10 µM (inactive) | > 10 µM (inactive) | > 10 µM (inactive) | > 10 µM (inactive) | > 10 µM (inactive) | > 10 µM (inactive) | > 10 µM (inactive) | > 10 µM (inactive) | > 10 µM (inactive) | > 10 µM (inactive) | > 10 µM (inactive) | > 10 µM (inactive) | > 10 µM (inactive) | > 10 µM (inactive) | > 10 µM (inactive) | > 10 µM (inactive) | > 10 µM (inactive) | > 10 µM (inactive) | 
8 | CCNc1nc(N)c(C(=O)c2ccc(Cl)cc2)s1 | 33 µM (inactive) | 18.9 µM (inactive) |  | 49.7 µM (inactive) | 44.2 µM (inactive) | 27 µM (inactive) | 27.9 µM (inactive) | 42.1 µM (inactive) | 32.7 µM (inactive) |  | 27.7 µM (inactive) | 41.8 µM (inactive) | 20.7 µM (inactive) | 36.3 µM (inactive) |  | 30.3 µM (inactive) | 36.7 µM (inactive) |  | 18.9 µM (inactive) | 
9 | COc1cc(/C=C(\NC(=O)c2ccccc2)c2nc3ccc4c(c3[nH]2)C(=O)c2ccccc2C4=O)cc(OC)c1OC | 20.1 µM (inactive) | 99.1 µM (inactive) | 7.24 µM (inactive) | 32.5 µM (inactive) | > 100 µM (inactive) | > 100 µM (inactive) | 23.1 µM (inactive) |  | > 100 µM (inactive) | 55.7 µM (inactive) | 35 µM (inactive) |  | 21.4 µM (inactive) | 69.3 µM (inactive) | 41.6 µM (inactive) | 2.92 µM (inactive) | 31.9 µM (inactive) | 10.1 µM (inactive) | > 100 µM (inactive) | > 100 µM (inactive)
10 | CN1C(=O)C23CCCCC2CC1(c1ccccc1)S3 (centres undefined) | > 100 µM (inactive) | > 100 µM (inactive) | 76.2 µM (inactive) | 94.4 µM (inactive) | > 100 µM (inactive) | 73.8 µM (inactive) | 60.3 µM (inactive) | 38.5 µM (inactive) | > 100 µM (inactive) | 65.3 µM (inactive) | 72.3 µM (inactive) | > 100 µM (inactive) | 64.7 µM (inactive) | 34.2 µM (inactive) | > 100 µM (inactive) | 49.8 µM (inactive) | 77.4 µM (inactive) | 68.2 µM (inactive) | 71.9 µM (inactive) | 
11 | O=C(O)C1C2C=CC(O2)C1C(=O)NCc1ccccn1 (centres undefined) | > 100 µM (inactive) | > 100 µM (inactive) | > 100 µM (inactive) | > 100 µM (inactive) | > 100 µM (inactive) | > 100 µM (inactive) | > 100 µM (inactive) | > 100 µM (inactive) | > 100 µM (inactive) | > 100 µM (inactive) | > 100 µM (inactive) | > 100 µM (inactive) | > 100 µM (inactive) | > 100 µM (inactive) | > 100 µM (inactive) | > 100 µM (inactive) | > 100 µM (inactive) | > 100 µM (inactive) | > 100 µM (inactive) | 
12 | N#CSC1CCCCNC1=O (centres undefined) | 12.7 µM (inactive) | 15.2 µM (inactive) | 8.09 µM (inactive) | 14.3 µM (inactive) | 20.6 µM (inactive) | 11.5 µM (inactive) | 8.45 µM (inactive) | 12.8 µM (inactive) | 2 µM (inactive) | 14.8 µM (inactive) |  |  | 15.1 µM (inactive) |  | 14.7 µM (inactive) | 5.96 µM (inactive) | 11.2 µM (inactive) | 11.8 µM (inactive) | 15.5 µM (inactive) | 16.4 µM (inactive)
13 | CC(=O)OC1C(COC(=O)c2ccccc2)OC(Nc2ncc(-c3ccc(Br)cc3)s2)C(OC(=O)c2ccccc2)C1OC(=O)c1ccccc1 (centres undefined) |  | > 100 µM (inactive) | > 100 µM (inactive) | > 100 µM (inactive) | > 100 µM (inactive) | > 100 µM (inactive) | > 100 µM (inactive) | > 10 µM (inactive) | > 100 µM (inactive) | > 100 µM (inactive) | > 100 µM (inactive) | > 100 µM (inactive) | > 100 µM (inactive) | > 100 µM (inactive) | > 100 µM (inactive) | > 100 µM (inactive) | > 100 µM (inactive) |  | > 100 µM (inactive) | 
14 | Cc1ccc(S(=O)(=O)N(C=O)N=C2CCN(Cc3ccccc3)CC2)cc1 | > 100 µM (inactive) | > 100 µM (inactive) | > 100 µM (inactive) | > 100 µM (inactive) | > 100 µM (inactive) | > 100 µM (inactive) | > 100 µM (inactive) |  | > 100 µM (inactive) | > 100 µM (inactive) | > 100 µM (inactive) |  | > 100 µM (inactive) | > 100 µM (inactive) | > 100 µM (inactive) | > 100 µM (inactive) | > 100 µM (inactive) | > 100 µM (inactive) | > 100 µM (inactive) | > 100 µM (inactive)
15 | CC(=O)Oc1ccc2c(c1)oc1c3ccc(OC(C)=O)cc3n(C)c(=O)c21 | 27.1 µM (inactive) | > 100 µM (inactive) |  | 27.2 µM (inactive) | 34.9 µM (inactive) | 31.8 µM (inactive) | 20.9 µM (inactive) | 15.7 µM (inactive) | 51.9 µM (inactive) | 36.7 µM (inactive) | 4.71 µM (inactive) | 32 µM (inactive) | 35.1 µM (inactive) |  | 22.5 µM (inactive) |  | 55 µM (inactive) |  | 21.6 µM (inactive) | 17.2 µM (inactive)
16 | CCC1OC2C(CC=C(C)C)=C3OC(C)(O)C(C)(CC)C(OC(C)=O)C3=C3OC(=O)C=C1C32 (centres undefined) | 19.6 µM (inactive) | 28.1 µM (inactive) | 16.6 µM (inactive) | 20.4 µM (inactive) | 23.6 µM (inactive) | 22.8 µM (inactive) | 25.7 µM (inactive) | 29.6 µM (inactive) | 22 µM (inactive) | 17.8 µM (inactive) | 20.4 µM (inactive) |  | 31.6 µM (inactive) | 32.4 µM (inactive) | 35 µM (inactive) | 22.1 µM (inactive) | 30.3 µM (inactive) | 28.2 µM (inactive) | 28.2 µM (inactive) | 24 µM (inactive)
